Reference: US8648066B2 (Exelixis, Inc., priority 2009, dated 2014)

Molecular target: mTOR/GbL/Raptor (mTORC1) (Homo sapiens, UniProt P42345)
Test: mTOR/GbL/Raptor (mTORC1) ELISA assay
Format: biochemical
Settings: phosphorylation of 4E-BP1; 0.2 nM mTORC1, 10 μM ATP; read-out: IC50 in this assay (mTORC1 ELISA)
In short: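 ELISA read-out: phospho-4E-BP1 captured on Ni-chelate plates and detected with anti-phospho antibody plus HRP-anti-IgG luminescence. The kinase step ran 120 min at ambient temperature with 0.2 nM human mTORC1, 10 µM ATP, 50 nM His-4E-BP1, 10 mM MnCl2, pH 7.2 HEPES.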

IC50 [nM]	Structure (SMILES)
10 to 50	C[C@@H](CO)CS(=O)(=O)c1cc(-c2ccc3c(c2)CN(c2ncnc4c2CC(C)(C)CC4)CCO3)cnc1N [Example 301, (2S)-3-({2-amino-5-[4-(6,6-dimethyl-5,6,7,8-tetrahydroquinazolin-4-yl)-2,3,4,5-tetrahydro-1,4-benzoxazepin-7-yl]pyridin-3-yl}sulfonyl)-2-methylpropan-1-ol]
50 to 250	CC1(C)CCc2ncnc(N3CCOc4ccc(-c5cnc6c(c5)S(=O)(=O)NC(=O)N6)cc4C3)c2C1 [Example 571, 7-[4-(6,6-dimethyl-5,6,7,8-tetrahydroquinazolin-4-yl)-2,3,4,5-tetrahydro-1,4-benzoxazepin-7-yl]-2H-pyrido[2,3-e][1,2,4]thiadiazin-3(4H)-one 1,1-dioxide]
10 to 50	CCNS(=O)(=O)c1cc(-c2ccc3c(c2)CN(c2ncnc4c2CC(C)(C)CC4)CCO3)cnc1N [Example 396, 2-amino-5-[4-(6,6-dimethyl-5,6,7,8-tetrahydroquinazolin-4-yl)-2,3,4,5-tetrahydro-1,4-benzoxazepin-7-yl]-N-ethylpyridine-3-sulfonamide]
10 to 50	Cc1nc2ncc(-c3ccc4c(c3)CN(c3nc(CNC(C)C5CC5)nc5c3CC(C)(C)CC5)CCO4)cc2[nH]1 (stereo not shown) [Example 360, 1-cyclopropyl-N-({6,6-dimethyl-4-[7-(2-methyl-1H-imidazo[4,5-b]pyridin-6-yl)-2,3-dihydro-1,4-benzoxazepin-4(5H)-yl]-5,6,7,8-tetrahydroquinazolin-2-yl}methyl)ethanamine]
≤ 10	Cc1nc2ccc(-c3ccc4c(c3)CN(c3nc(CNCCF)nc5c3CC(C)(C)CC5)CCO4)cc2[nH]1 [Example 586, N-({6,6-dimethyl-4-[7-(2-methyl-1H-benzimidazol-6-yl)-2,3-dihydro-1,4-benzoxazepin-4(5H)-yl]-5,6,7,8-tetrahydroquinazolin-2-yl}methyl)-2-fluoroethanamine]
50 to 250	CC[C@H]1CCc2c(ncnc2N2CCOc3ccc(-c4cnc5nc([C@@H](C)N)[nH]c5c4)cc3C2)C1 [Example 297, (1R)-1-(6-{4-[(7S)-7-ethyl-5,6,7,8-tetrahydroquinazolin-4-yl]-2,3,4,5-tetrahydro-1,4-benzoxazepin-7-yl}-1H-imidazo[4,5-b]pyridin-2-yl)ethanamine]
10 to 50	Cc1ncnc(N2CCOc3ccc(-c4ccc5nc(N)cn5c4)cc3C2)c1Cc1ccc(F)cc1 [Example 145, 6-(4-{5-[(4-fluorophenyl)methyl]-6-methylpyrimidin-4-yl}-2,3,4,5-tetrahydro-1,4-benzoxazepin-7-yl)imidazo[1,2-a]pyridin-2-amine]
10 to 50	Cc1nc(N)sc1-c1ccc2c(c1)CN(c1ncnc3c1CCC(C)(C)C3)CCO2 [Example 156, 5-[4-(7,7-dimethyl-5,6,7,8-tetrahydroquinazolin-4-yl)-2,3,4,5-tetrahydro-1,4-benzoxazepin-7-yl]-4-methyl-1,3-thiazol-2-amine]
10 to 50	CN(C)Cc1nc2c(c(N3CCOc4ccc(-c5cnc6sc(N)nc6c5)cc4C3)n1)CC(C)(C)CC2 [Example 526, 6-(4-{2-[(dimethylamino)methyl]-6,6-dimethyl-5,6,7,8-tetrahydroquinazolin-4-yl}-2,3,4,5-tetrahydro-1,4-benzoxazepin-7-yl)[1,3]thiazolo[5,4-b]pyridin-2-amine]
≤ 10	CCc1ncnc(N2CCOc3ccc(-c4ccc5nc(C)[nH]c5c4)cc3C2)c1Cc1ccccc1 [Example 70, 4-[6-ethyl-5-(phenylmethyl)pyrimidin-4-yl]-7-(2-methyl-1H-benzimidazol-6-yl)-2,3,4,5-tetrahydro-1,4-benzoxazepine]
10 to 50	COc1cccc(Cc2c(C)ncnc2N2CCOc3ccc(-c4ccc5nc(C)[nH]c5c4)cc3C2)c1 [Example 81, 7-(2-methyl-1H-benzimidazol-6-yl)-4-(6-methyl-5-{[3-(methyloxy)phenyl]methyl}pyrimidin-4-yl)-2,3,4,5-tetrahydro-1,4-benzoxazepine]
≤ 10	Cc1nc2cc(-c3ccc4c(c3)CN(c3nc(CN5CCCC5)nc5c3CC(C)(C)CC5)CCO4)cnc2[nH]1 [Example 501, 4-[6,6-dimethyl-2-(pyrrolidin-1-ylmethyl)-5,6,7,8-tetrahydroquinazolin-4-yl]-7-(2-methyl-3H-imidazo[4,5-b]pyridin-6-yl)-2,3,4,5-tetrahydro-1,4-benzoxazepine]
50 to 250	Cc1nc(CN(C)C)nc(N2CCOc3ccc(-c4ccc5[nH]c(C(F)F)nc5c4)cc3C2)c1C(C)C [Example 331, 1-[4-{7-[2-(difluoromethyl)-1H-benzimidazol-5-yl]-2,3-dihydro-1,4-benzoxazepin-4(5H)-yl}-6-methyl-5-(1-methylethyl)pyrimidin-2-yl]-N,N-dimethylmethanamine]
10 to 50	CC[C@H]1CCc2c(ncnc2N2CCOc3ccc(-c4cnc(N)c(S(=O)(=O)N5C[C@@H]6C[C@H]5CN6)c4)cc3C2)C1 [Example 437, 3-[(1S,4S)-2,5-diazabicyclo[2.2.1]hept-2-ylsulfonyl]-5-{4-[(7S)-7-ethyl-5,6,7,8-tetrahydroquinazolin-4-yl]-2,3,4,5-tetrahydro-1,4-benzoxazepin-7-yl}pyridin-2-amine]
≤ 10	COC(=O)Nc1nc2ncc(-c3ccc4c(c3)CN(c3ncnc5c3CC(C)(C)CC5)CCO4)cc2[nH]1 [Example 582, methyl {6-[4-(6,6-dimethyl-5,6,7,8-tetrahydroquinazolin-4-yl)-2,3,4,5-tetrahydro-1,4-benzoxazepin-7-yl]-1H-imidazo[4,5-b]pyridin-2-yl}carbamate]
1000 to 2000	Cc1nc2ccc(-c3ccc4c(c3)CN(c3ncnc(C)c3C)CCO4)cc2[nH]1 [Example 48, 4-(5,6-dimethylpyrimidin-4-yl)-7-(2-methyl-1H-benimidazol-6-yl)-2,3,4,5-tetrahydro-1,4-benzoxazepine]
50 to 250	CSc1nc2c(c(N3CCOc4ccc(-c5ccc6nc(C)[nH]c6c5)cc4C3)n1)CCC2 [Example 49, 7-(2-methyl-1H-benzimidazol-6-yl)-4-[2-(methylthio)-6,7-dihydro-5H-cyclopenta[d]pyrimidin-4-yl]-2,3,4,5-tetrahydro-1,4-benzoxazepine]
≤ 10	Cc1nc2ccc(-c3ccc4c(c3)CN(c3ncnc(C)c3Cc3cc(F)cc(Cl)c3)CCO4)cc2[nH]1 [Example 83, 4-{5-[(3-chloro-5-fluorophenyl)methyl]-6-methylpyrimidin-4-yl}-7-(2-methyl-1H-benzimidazol-6-yl)-2,3,4,5-tetrahydro-1,4-benzoxazepine]
≤ 10	COC(=O)Nc1nc2ncc(-c3ccc4c(c3)CN(c3ncnc(C)c3Cc3ccc(F)cc3)CCO4)cc2[nH]1 [Example 175, methyl [6-(4-{5-[(4-fluorophenyl)methyl]-6-methylpyrimidin-4-yl}-2,3,4,5-tetrahydro-1,4-benzoxazepin-7-yl)-1H-imidazo[4,5-b]pyridin-2-yl]carbamate]
50 to 250	Cc1nc2ccc(-c3ccc4c(c3)CN(c3cc(C(C)C)ncn3)CCO4)cc2[nH]1 [Example 59, 7-(2-methyl-1H-benzimidazol-6-yl)-4-[6-(1-methylethyl)pyrimidin-4-yl]-2,3,4,5-tetrahydro-1,4-benzoxazepine]
10 to 50	CC1(C)CCc2ncnc(N3CCOc4ccc(-c5cnc(N)c(S(=O)(=O)N6CCC(O)C6)c5)cc4C3)c2C1 (stereo not shown) [Example 318]
250 to 1000	CCNc1nc2ccc(-c3ccc4c(c3)CN(c3cc(Nc5cccc(OC)c5)ncn3)CCO4)cc2[nH]1 [Example 284, N-ethyl-6-[4-(6-{[3-(methyloxy)phenyl]amino}pyrimidin-4-yl)-2,3,4,5-tetrahydro-1,4-benzoxazepin-7-yl]-1H-benzimidazol-2-amine]
50 to 250	Cc1ncnc(N2CCOc3ccc(-c4ccc(C(=O)NC5CC5)cc4)cc3C2)c1Cc1ccc(F)cc1 [Example 172, N-cyclopropyl-4-(4-{5-[(4-fluorophenyl)methyl]-6-methylpyrimidin-4-yl}-2,3,4,5-tetrahydro-1,4-benzoxazepin-7-yl)benzamide]
≤ 10	Cc1nc(C)c(Cc2ccc(F)cc2)c(N2CCOc3ccc(-c4ccc5nc(C)[nH]c5c4)cc3C2)n1 [Example 97, 4-{5-[(4-fluorrophenyl)methyl]-2,6-dimethylpyrimidin-4-yl}-7-(2-methyl-1H-benzimidazol-6-yl)-2,3,4,5-tetrahydro-1,4-benzoxazepine]
≤ 10	CC1=CC(C)(C)Cc2c1ncnc2N1CCOc2ccc(-c3cnc(N)c(S(=O)(=O)N4CC[C@@H](N)C4)c3)cc2C1 [Example 448, 3-{[(3R)-3-aminopyrrolidin-1-yl]sulfonyl}-5-[4-(6,6,8-trimethyl-5,6-dihydroquinazolin-4-yl)-2,3,4,5-tetrahydro-1,4-benzoxazepin-7-yl]pyridin-2-amine]
50 to 250	CN(C)C(=O)c1cc(-c2ccc3c(c2)CN(c2ncnc4c2CC(C)(C)CC4)CCO3)cnc1N [Example 379, 2-amino-5-[4-(6,6-dimethyl-5,6,7,8-tetrahydroquinazolin-4-yl)-2,3,4,5-tetrahydro-1,4-benzoxazepin-7-yl]-N,N-dimethylpyridine-3-carboxamide]
50 to 250	CC1(C)CCc2ncnc(N3CCOc4ccc(-c5cnc(N)c(S(=O)(=O)N6CCOCC6)c5)cc4C3)c2C1 [Example 513, 5-[4-(6,6-dimethyl-5,6,7,8-tetrahydroquinazolin-4-yl)-2,3,4,5-tetrahydro-1,4-benzoxazepin-7-yl]-3-(morpholin-4-ylsulfonyl)pyridin-2-amine]
250 to 1000	CCNc1nc2ccc(-c3ccc4c(c3)CN(c3ncnc(NCC)c3C)CCO4)cc2[nH]1 [Example 643, N-ethyl-6-{4-[6-(ethylamino)-5-methylpyrimidin-4-yl]-2,3,4,5-tetrahydro-1,4-benzoxazepin-7-yl}-1H-benzimidazol-2-amine]
